Measurements as given in patent publication US20230272221A1, “REAGENTS FOR LABELING BIOMOLECULES” (Ultima Genomics, Inc., priority 2020, published 2023).

How the values were obtained:
[1] = enzyme-independent bead assay for evaluating quenching with linker arm oligonucleotides; format: physicochemical; conditions: APC (red) channel, FIG. 14
From the text: The dye-labeled nucleotides provided herein may improve quenching between nucleobases and the dyes to which they are attached and/or between dyes in a nucleic acid molecule (e.g., a growing nucleic acid strand), such as in a homopolymeric region of a nucleic acid molecule. Quenching may be evaluated in an enzyme-independent manner.
Synthetic oligos are constructed with one or two “linker arm nucleotides”. Linker arm nucleotides are thymidine analogs with a linker arm containing a primary amine. The oligonucleotide containing the linker arm nucleotide can be labeled with linkers and dyes and HPLC purified. The advantage of using the bead-labeled assay is that exact quantitation of the reagents is not necessary; a large excess can be used in each step and the beads washed, ensuring that only stoichiometric amounts of oligonucleotides are bound to the template. Each dye-linker is put on both oligonucleotides. The beads are measured on the flow cytometer in the APC (red) channel. The percent quenching is determined by the formula: % quenching=100×(1−Flbis/(2*Flmono)).
FIGS. 14 and 15 show quenching results for red dye linkers (FIG. 14) and green dye linkers (FIG. 15). […] The hyp10 or hyp20 linkers improve quenching.

[2] = relative fluorescence of dyes coupled directly to oligos, double-stranded DNA bound to beads, flow cytometer; format: physicochemical; conditions: FIG. 26
Method: Fluorescence was measured with double-stranded DNA bound to beads using a flow cytometer. […] Accordingly, green dyes may have an inherent advantage over red dyes. This difference may owe at least in part to Atto633 being hydrophobic while Atto532 is comparatively hydrophilic.

Compound	quenching, red dye linkers [1]	brightness of two dyes relative to a single dye coupled to an oligo [2]
CC[N+]1=c2cc3c(cc2CCC1)=C(c1ccccc1C(=O)N(C)CCCC(=O)O)c1ccc(N(C)C)cc1C3(C)C [Atto633]	hyp10 improves quenching	0.4 ×
CCN1/C(=C/C=C/C=C/C2=[N+](CCCCCC(=O)O)c3ccc(S(=O)(=O)O)cc3C2(C)C)C(C)(C)c2cc(S(=O)(=O)[O-])ccc21 [Cy5]	quenching may not be improved	
